# From US11793815B2, “Oxindoles and methods of use thereof” (ALIGOS THERAPEUTICS, INC., priority 2020, dated 2023)
# pEC50: −log10 of the molar value.
# Target: T1, human thyroid receptor beta ligand-binding domain (LBD) (Homo sapiens, UniProt P10828)
# T1 construct: Thyroid receptor beta LBD was added to the plate at a final concentration of 1 nM; purchased Invitrogen
# T1 sequence (P10828 217-461 limits assumed): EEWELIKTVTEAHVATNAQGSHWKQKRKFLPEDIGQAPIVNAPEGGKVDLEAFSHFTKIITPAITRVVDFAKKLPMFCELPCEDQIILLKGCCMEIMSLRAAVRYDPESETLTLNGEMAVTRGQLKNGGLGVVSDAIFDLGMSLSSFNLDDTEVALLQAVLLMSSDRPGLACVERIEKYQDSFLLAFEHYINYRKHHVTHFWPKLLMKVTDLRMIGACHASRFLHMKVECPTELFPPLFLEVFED
# Experiment: THR Biochemical Assay (Assay 1): TR-FRET thyroid receptor beta coactivator assay
# Conditions: GST-tagged thyroid receptor beta LBD 1 nM, fluorescein SRC2-2 coactivator peptide 200 nM, 1 hr at rt, TR-FRET ratio 520:495; read-out: Assay 1 (EC50, THR-beta agonist)
# Text: THR Biochemical Assay (Assay 1)
# The TR-FRET thyroid receptor beta coactivator assay was used with slight, optimized modifications of the manufacturer's protocol (Invitrogen). The assay uses a terbium-labeled anti-GST antibody, a glutathione-S-transferase (GST) tagged human thyroid receptor, beta or alpha, ligand-binding domain (LBD), and a fluorescein labeled SRC2-2 coactivator peptide. The antibody interacts with the LBD, where the agonist also binds, resulting in increased affinity for the SRC2-2 coactivator peptide causing energy transfer […] the acceptor fluorophore and a FRET emission shift from 495 to 520 nm. The energy transfer was detected as an increase in the fluorescence emission of the fluorescein acceptor, and a decrease in the fluorescence emission of the terbium donor. The assay was performed in a 384-well black plate in a final volume of 20 μL. Serial dilution of various test agonists was performed in DMSO (1% final DMSO concentration) and added to the test plate. Thyroid receptor beta LBD was added to the plate at a final concentration of 1 nM, followed by the mixture of the fluorescein labeled SRC2-2 coactivator peptide, and the terbium-labeled anti-GST antibody at final concentrations of 200 nM and 2 nM respectively. The assay was incubated for 1 hr at rt protected from light. The TR-FRET was then measured on a Victor multilabel reader (Perkin Elmer) using an excitation wavelength of 340 nm with emission filters of 495 nm and 520 nm. The assay was quantified by expressing a ratio (520:495) of the intensities, and the resulting activation curves; EC50 values were generated using a sigmoidal dose response (variable slope) equation in GraphPad™ Prism 8.0.
row,pEC50,Structure (SMILES)
1,> 7.30,"Cc1cc(NC(=O)c2noc(=O)[nH]2)cc(C)c1Oc1ccc2c(c1)C1(CCC1)C(=O)N2 [Compound 25, N-(3,5-dimethyl-4-((2′-oxospiro[cyclobutane-1,3′-indolin]-5′-yl)oxy)phenyl)-5-oxo-4,5-dihydro-1,2,4-oxadiazole-3-carboxamide]"
2,< 4.60,"CN1C(=O)C2(CC2)c2cc(Oc3c(Cl)cc(-n4nc(N)c(=O)[nH]c4=O)cc3Cl)ccc21 [Compound 26, 6-amino-2-(3,5-dichloro-4-((1′-methyl-2′-oxospiro[cyclopropane-1,3′-indolin]-5′-yl)oxy)phenyl)-1,2,4-triazine-3,5(2H,4H)-dione]"
3,> 7.30,"Cc1cc(Oc2c(Cl)cc(-n3nc(N)c(=O)[nH]c3=O)cc2Cl)cc2c1NC(=O)C21CCC1 [Compound 27, 6-amino-2-(3,5-dichloro-4-((7′-methyl-2′-oxospiro[cyclobutane-1,3′-indolin]-5′-yl)oxy)phenyl)-1,2,4-triazine-3,5(2H,4H)-dione]"
4,> 7.30,"Cc1cc(-n2nc(N)c(=O)[nH]c2=O)cc(C)c1Oc1ccc2c(c1)C1(CCCC1)C(=O)N2 [Compound 28, 6-amino-2-(3,5-dimethyl-4-((2′-oxospiro[cyclopentane-1,3′-indolin]-5′-yl)oxy)phenyl)-1,2,4-triazine-3,5(2H,4H)-dione]"
5,> 7.30,"O=C(Nc1cc(Cl)c(Oc2ccc3c(c2Cl)C2(CC2)C(=O)N3)c(Cl)c1)c1noc(=O)[nH]1 [Compound 29, N-(3,5-dichloro-4-((4′-chloro-2′-oxospiro[cyclopropane-1,3′-indolin]-5′-yl)oxy)phenyl)-5-oxo-4,5-dihydro-1,2,4-oxadiazole-3-carboxamide]"
6,> 7.30,"Nc1nn(-c2cc(Cl)c(Oc3ccc4c(c3Cl)C3(CC3)C(=O)N4)c(Cl)c2)c(=O)[nH]c1=O [Compound 30, 6-amino-2-(3,5-dichloro-4-((4′-chloro-2′-oxospiro[cyclopropane-1,3′-indolin]-5′-yl)oxy)phenyl)-1,2,4-triazine-3,5(2H,4H)-dione]"
7,> 7.30,"O=C1Nc2ccc(Oc3c(Cl)cc(-n4ncc(=O)[nH]c4=O)cc3Cl)c(Cl)c2C12CC2 [Compound 31, 2-(3,5-dichloro-4-((4′-chloro-2′-oxospiro[cyclopropane-1,3′-indolin]-5′-yl)oxy)phenyl)-1,2,4-triazine-3,5(2H,4H)-dione]"
8,> 7.30,"CC1CC12C(=O)Nc1ccc(Oc3c(Cl)cc(-n4nc(N)c(=O)[nH]c4=O)cc3Cl)cc12 (stereo not drawn) [Compound 33, 6-amino-2-(3,5-dichloro-4-((2-methyl-2′-oxospiro[cyclopropane-1,3′-indolin]-5′-yl)oxy)phenyl)-1,2,4-triazine-3,5(2H,4H)-dione]"
9,> 7.30,"O=C(O)C(=O)Nc1cc(Cl)c(Oc2ccc3c(c2)C(F)(F)C(=O)N3)c(Cl)c1 [Compound 36, 2-((3,5-dichloro-4-((3,3-difluoro-2-oxoindolin-5-yl)oxy)phenyl)amino)-2-oxoacetic acid]"
10,> 7.30,"Cc1c(Oc2c(Cl)cc(-c3nn(C)c(=O)[nH]c3=O)cc2Cl)ccc2c1C1(CC1)C(=O)N2 [Compound 37, 6-(3,5-dichloro-4-((4′-methyl-2′-oxospiro[cyclopropane-1,3′-indolin]-5′-yl)oxy)phenyl)-2-methyl-1,2,4-triazine-3,5(2H,4H)-dione]"
11,> 7.30,"Cc1c(Oc2c(Cl)cc(-n3nc(N)c(=O)[nH]c3=O)cc2Cl)ccc2c1C1(CC1)C(=O)N2 [Compound 38, 6-amino-2-(3,5-dichloro-4-((4′-methyl-2′-oxospiro[cyclopropane-1,3′-indolin]-5′-yl)oxy)phenyl)-1,2,4-triazine-3,5(2H,4H)-dione]"
12,> 7.30,"Cc1cc(NC(=O)c2noc(=O)[nH]2)cc(C)c1Oc1ccc2c(c1)C1(CC1)C(=O)N2 [Compound 39, N-(3,5-dimethyl-4-((2′-oxospiro[cyclopropane-1,3′-indolin]-5′-yl)oxy)phenyl)-5-oxo-4,5-dihydro-1,2,4-oxadiazole-3-carboxamide]"
13,> 7.30,"O=C(Nc1cc(Cl)c(Oc2ccc3c(c2F)C2(CC2)C(=O)N3)c(Cl)c1)c1noc(=O)[nH]1 [Compound 40, N-(3,5-dichloro-4-((4′-fluoro-2′-oxospiro[cyclopropane-1,3′-indolin]-5′-yl)oxy)phenyl)-5-oxo-4,5-dihydro-1,2,4-oxadiazole-3-carboxamide]"
14,> 7.30,"Nc1nn(-c2cc(Cl)c(Oc3ccc4c(c3F)C3(CC3)C(=O)N4)c(Cl)c2)c(=O)[nH]c1=O [Compound 41, 6-amino-2-(3,5-dichloro-4-((4′-fluoro-2′-oxospiro[cyclopropane-1,3′-indolin]-5′-yl)oxy)phenyl)-1,2,4-triazine-3,5(2H,4H)-dione]"
15,> 7.30,"Cn1nc(-c2cc(Cl)c(Oc3ccc4c(c3F)C3(CC3)C(=O)N4)c(Cl)c2)c(=O)[nH]c1=O [Compound 42, 6-(3,5-dichloro-4-((4′-fluoro-2′-oxospiro[cyclopropane-1,3′-indolin]-5′-yl)oxy)phenyl)-2-methyl-1,2,4-triazine-3,5(2H,4H)-dione]"
16,> 7.30,"Cn1nc(-c2cc(Cl)c(Oc3ccc4c(c3Cl)C3(CC3)C(=O)N4)c(Cl)c2)c(=O)[nH]c1=O [Compound 43, 6-(3,5-dichloro-4-((4′-chloro-2′-oxospiro[cyclopropane-1,3′-indolin]-5′-yl)oxy)phenyl)-2-methyl-1,2,4-triazine-3,5(2H,4H)-dione]"
17,> 7.30,"O=C(Nc1cc(Cl)c(Oc2ccc3c(c2)C2(CC2)C(=O)N3)c(C(F)(F)F)c1)c1noc(=O)[nH]1 [Compound 44, N-(3-chloro-4-((2′-oxospiro[cyclopropane-1,3′-indolin]-5′-yl)oxy)-5-(trifluoromethyl)phenyl)-5-oxo-4,5-dihydro-1,2,4-oxadiazole-3-carboxamide]"
18,6.00 to 6.60,"Nc1nn(-c2cc(Cl)c(Oc3cnc4c(c3)C3(CC3)C(=O)N4)c(Cl)c2)c(=O)[nH]c1=O [Compound 45, 6-amino-2-(3,5-dichloro-4-((2′-oxo-1′,2′-dihydrospiro[cyclopropane-1,3′-pyrrolo[2,3-b]pyridin]-5′-yl)oxy)phenyl)-1,2,4-triazine-3,5(2H,4H)-dione]"
